According to patent US6133292A, “Diaryl-5-alkyl-5-methyl-2-(5H)-furanones as selective cyclooxygenase-2-inhibitors” (Merck Frosst Canada & Co., priority 1998, dated 2000):

Test: Pharmacokinetics in rats (half-life)
Assay type: in vivo, rat (male Sprague Dawley)
Conditions: rat, blood, read-out: T 1/2 in Rats (converted)
Excerpt: Per Os Pharmacokinetics in Rats--Procedure:
The animals are housed, fed and cared for according to the Guidelines of the Canadian Council on Animal Care. Male Sprague Dawley rats (325-375 g) are fasted overnight prior to each PO blood level study. The rats are placed in the restrainer one at a time and the box firmly secured. The zero blood sample is obtained by nicking a small (1 mm or less) piece off the tip of the tail. The tail is then stroked with a firm but gentle motion from the top to the bottom to milk out the blood. Approximately 1 mL of blood is collected into a heparirnized vacutainer tube.
Compounds are prepared as required, in a standard dosing volume of 10 mL/kg, and administered orally by passing a 16 gauge, 3" gavaging needle into the stomach. Subsequent bleeds are taken in the same manner as the zero bleed except that there is no need to nick the tail again. The tail is cleaned with a piece of gauze and milked/stroked as described above into the appropriately labelled tubes.
Immediately after sampling, blood is centrifuged, separated, put into clearly marked vials and stored in a freezer until analysed. Typical time points for determination of rat blood levels after PO dosing are 0, 15 min, 30 min, 1 h, 2 h, 4 h, and 6 h.
After the 4 hr time point bleed, food is provided to the rats ad libitum. Water is provided at all times during the study.
The following vehicles may be used in PO rat blood level determinations:
Compounds for PO blood levels can be in suspension form. For better dissolution, the solution can be placed in a sonicator for approximately 5 minutes.
For analysis, aliquots are diluted with an equal volume of acetonitrile and centrifuged to remove protein precipitate. The supernatant is injected directly onto a C-18 HPLC column with UV detection. Quantitation is done relative to a clean blood sample spiked with a known quantity of drug.
Intravenous Pharmacokinetics in Rats--Procedure
The animals are housed, fed and cared for according to the Guidelines of the Canadian Council on Animal Care. Male Sprague Dawley (325-375 g) rats are placed in plastic shoe box cages with a suspended floor, cage top, water bottle and food. The compound is prepared as required, in a standard dosing volume of 1 mL/kg.
Rats are bled for the zero blood sample and dosed under CO2 sedation. The rats, one at a time, are placed in a primed CO2 chamber and taken out as soon as they have lost their righting reflex. The rat is then placed on a restraining board, a nose cone with CO2 delivery is placed over the muzzle and the rat restrained to the board with elastics. With the use of forceps and scissors, the jugular vein is exposed and the zero sample taken, followed by a measured dose of compound which is injected into the jugular vein. Light digital pressure is applied to the injection site, and the nose cone is removed. The time is noted. This constitutes the zero time point.
The 5 min bleed is taken by nicking a piece (1-2 mm) off the tip of the tail. The tail is then stroked with a firm but gentle motion from the top of the tail to the bottom to milk the blood out of the tail. Approximately 1 mL of blood is collected into a heparinized collection vial. Subsequent bleeds are taken in the same fashion, except that there is no need to nick the tail again. The tail is cleaned with a piece of gauze and bled, as described above, into the appropriate labelled tubes. Typical time points for determination of rat blood levels after I.V. dosing are either a) 0, 5 min, 15 min, 30 min, 1 h, 2 h, 6 h, or b) 0, 5 min, 30 min, 1 h, 2 h, 4 h, 6 h.
The following vehicles may be used in IV rat blood level determinations:
DMSO (dimethylsulfoxide): Restricted to a dose volume of 0.1 mL per animal
PEG 200: Not more than 60% mixed with 40% sterile water --1 mL/kg
With Dextrose, either sodium bicarbonate or sodium carbonate can be added if the solution is cloudy. […]

| half-life [h] | SMILES |
| --- | --- |
| 3.6 | CC[C@@]1(C)OC(=O)C(c2ccc(F)c(F)c2)=C1c1ccc(S(C)(=O)=O)cc1 [h, (5R)-3-(3,4-difluorophenyl)-5-ethyl-5-methyl-4-[4-(methylsulfonyl)phenyl] -2,5-dihydro-2-furanone] |
| ~1 | CCCC1(C)OC(=O)C(c2ccc(F)cc2)=C1c1ccc(S(C)(=O)=O)cc1 (centres unmarked) [n, 3-(4-fluorophenyl)-5-methyl-4-[4-(methylsulfonyl)phenyl]-5-propyl-2,5-dihydro-2-furanone] |
| 4.8 | CC[C@]1(C)OC(=O)C(c2ccc(F)c(F)c2)=C1c1ccc(S(C)(=O)=O)cc1 [i, (5S)-3-(3,4-difluorophenyl)-5-ethyl-5-methyl-4-[4-(methylsulfonyl)phenyl] -2,5-dihydro-2-furanone] |

The remaining lines, values behind:

| SMILES | half-life [h] |
| --- | --- |
| CCC1(C)OC(=O)C(c2ccc(F)cc2)=C1c1ccc(S(C)(=O)=O)cc1 (centres unmarked) [c, 5-ethyl-3-(4-fluorophenyl)-5-methyl-4-[4-(methylsulfonyl)phenyl]-2,5-dihydro-2-furanone] | 3 |
| CC1(C)OC(=O)C(c2ccc(F)cc2)=C1c1ccc(S(C)(=O)=O)cc1 [Compound T3-1, 3-(4-fluorophenyl)-5,5-dimethyl-4-[4-(methylsulfonyl)phenyl]-2,5-dihydro-2-furanone, reference compound] | > 24 |
